Activity calls are given as the source filed them. The calls are words filed in the database; no cut-off is given here.
Key:
L1210 [1] = assay: Cell cycle arrest in mouse L1210 cells by accumulation at S phase at 0.1 ug/ml after 24 hrs by flow cytometry; type: functional, cell-based
L1210 [2] = assay: Cell cycle arrest in mouse L1210 cells by increase in accumulation at S phase at 0.01-0.1 ug/mL after 24 hrs by flow cytometry; type: functional, cell-based
L1210 [3] = assay: Cell cycle arrest in mouse L1210 cells by increase in accumulation at G2/M phase at 0.01-0.1 ug/mL after 24 hrs by flow cytometry; type: functional, cell-based
MC-38 [4] = assay: Antitumor activity in BDF1 mouse bearing colon 38 cells assessed as tumor growth inhibition at 0.05 mg/kg, iv daily 4 times for 3 days; type: functional; conditions: MC-38, 72 h, read-out: TGI
L1210 [5] = assay: Cell cycle arrest in mouse L1210 cells by accumulation at G2/M phase at 0.1 ug/ml after 24 hrs by flow cytometry; type: functional, cell-based
MC-38 [6] = assay: Antitumor activity in BDF1 mouse bearing colon 38 cells assessed as maximum weight loss at 0.05 mg/kg, iv daily 4 times for 3 days; type: functional
L1210 [7] = assay: Cell cycle arrest in mouse L1210 cells by decrease in accumulation at G1 phase at 0.01-0.1 ug/mL after 24 hrs by flow cytometry; type: functional, cell-based
L1210 [8] = assay: Cell cycle arrest in mouse L1210 cells by increase in accumulation at S phase at 0.1 ug/mL after 12 hrs by flow cytometry; type: functional, cell-based
L1210 [9] = assay: Antitumor activity against mouse L1210 cells assessed as inhibition of [3H]thymidine uptake after 48 hrs; type: functional, cell-based
MC-38 [10] = assay: Antitumor activity in BDF1 mouse bearing colon 38 cells assessed as cell death at 0.05 mg/kg, iv daily 4 times for 3 days; type: functional
SK-OV-3 [11] = assay: Antitumor activity against human SKOV3 cells assessed as inhibition of [3H]thymidine uptake after 72 hrs; type: functional, cell-based
L1210 [12] = assay: Antitumor activity against mouse L1210 cells; type: functional, cell-based
L1210 [13] = assay: Cell cycle arrest in mouse L1210 cells by increase in accumulation at S phase at 0.1 ug/mL after 3 hrs by flow cytometry relative to control; type: functional, cell-based
L1210 [14] = assay: Antitumor activity in BDF1 mouse bearing mouse L1210 cells assessed as increase of life span at 0.4 mg/kg, iv; type: functional
MC-38 [15] = assay: Antitumor activity in BDF1 mouse bearing colon 38 cells assessed as cell death at 0.15 mg/kg, iv daily 4 times for 3 days; type: functional
[16] = Antitumor activity in BALB/c mouse bearing JC cells assessed as cell death at 0.20 mg/kg, iv daily 4 times for 3 days; type: functional; conditions: dose 0.2 mg/kg
[17] = Antitumor activity in BALB/c mouse bearing JC cells assessed as cell death at 0.16 mg/kg, iv daily 4 times for 3 days; type: functional
MC-38 [18] = assay: Antitumor activity in BDF1 mouse bearing colon 38 cells assessed as maximum weight loss at 0.3 mg/kg, iv daily 4 times for 2 days; type: functional
MC-38 [19] = assay: Antitumor activity in BDF1 mouse bearing colon 38 cells assessed as tumor growth inhibition at 0.3 mg/kg, iv daily 4 times for 2 days; type: functional; conditions: MC-38, 48 h, read-out: TGI
[20] = Antitumor activity in BALB/c mouse bearing JC cells assessed as tumor growth inhibition at 0.25 mg/kg, iv daily 4 times for 2 days; type: functional; conditions: 48 h, read-out: TGI
L1210 [21] = assay: Antitumor activity in BDF1 mouse bearing mouse L1210 cells assessed as increase of life span at 0.05 mg/kg, iv; type: functional
[22] = Antitumor activity in BALB/c mouse bearing JC cells assessed as cell death at 0.25 mg/kg, iv daily 4 times for 2 days; type: functional
MC-38 [23] = assay: Antitumor activity in BDF1 mouse bearing colon 38 cells assessed as maximum weight loss at 0.15 mg/kg, iv daily 4 times for 3 days; type: functional
[24] = Antitumor activity in BALB/c mouse bearing JC cells assessed as maximum weight loss at 0.16 mg/kg, iv daily 4 times for 3 days; type: functional
[25] = Antitumor activity in BALB/c mouse bearing JC cells assessed as maximum weight loss at 0.20 mg/kg, iv daily 4 times for 3 days; type: functional; conditions: dose 0.2 mg/kg
MC-38 [26] = assay: Antitumor activity in BDF1 mouse bearing colon 38 cells assessed as tumor growth inhibition at 0.15 mg/kg, iv daily 4 times for 3 days; type: functional; conditions: MC-38, 72 h, read-out: TGI
L1210 [27] = assay: Antitumor activity in BDF1 mouse bearing mouse L1210 cells assessed as increase of life span at 0.2 mg/kg, iv; type: functional
SK-OV-3 [28] = assay: Anticancer activity in CD1 mouse xenografted with human SKOV3 cells assessed as tumor growth inhibition at 0.13 mg/kg, iv; type: functional; conditions: read-out: TGI
[29] = Antitumor activity in BALB/c mouse bearing JC cells assessed as tumor growth inhibition at 0.16 mg/kg, iv daily 4 times for 3 days; type: functional; conditions: 72 h, read-out: TGI
MC-38 [30] = assay: Antitumor activity in BDF1 mouse bearing colon 38 cells assessed as cell death at 0.3 mg/kg, iv daily 4 times for 2 days; type: functional
SK-OV-3 [31] = assay: Anticancer activity in CD1 mouse xenografted with human SKOV3 cells assessed as weight change at 0.13 mg/kg, iv; type: functional
[32] = Antitumor activity in BALB/c mouse bearing JC cells assessed as tumor growth inhibition at 0.20 mg/kg, iv daily 4 times for 3 days; type: functional; conditions: 72 h, read-out: TGI
L1210 [33] = assay: Antitumor activity in BDF1 mouse bearing mouse L1210 cells assessed as increase of life span at 0.1 mg/kg, iv; type: functional
[34] = Antitumor activity in BALB/c mouse bearing JC cells assessed as maximum weight loss at 0.25 mg/kg, iv daily 4 times for 2 days; type: functional
MC-38 [35] = assay: Antitumor activity in BDF1 mouse bearing colon 38 cells assessed as cell death at 70 mg/kg, iv daily 4 times for 3 days; type: functional
MC-38 [36] = assay: Antitumor activity in BDF1 mouse bearing colon 38 cells assessed as tumor growth inhibition at 70 mg/kg, iv daily 4 times for 3 days; type: functional; conditions: MC-38, 72 h, read-out: TGI
MC-38 [37] = assay: Antitumor activity in BDF1 mouse bearing colon 38 cells assessed as maximum weight loss at 70 mg/kg, iv daily 4 times for 3 days; type: functional
SK-OV-3 [38] = assay: Anticancer activity in CD1 mouse xenografted with human SKOV3 cells assessed as weight change at 5 mg/kg, iv; type: functional
SK-OV-3 [39] = assay: Anticancer activity in CD1 mouse xenografted with human SKOV3 cells assessed as tumor growth inhibition at 5 mg/kg, iv; type: functional; conditions: read-out: TGI
L1210 [40] = assay: Antitumor activity in BDF1 mouse bearing mouse L1210 cells assessed as increase of life span at 10 mg/kg, iv; type: functional
[41] = Antitumor activity in BALB/c mouse bearing JC cells assessed as tumor growth inhibition at 8.0 mg/kg, iv daily 4 times for 3 days; type: functional; conditions: 72 h, read-out: TGI
[42] = Antitumor activity in BALB/c mouse bearing JC cells assessed as maximum weight loss at 8.0 mg/kg, iv daily 4 times for 3 days; type: functional
[43] = Antitumor activity in BALB/c mouse bearing JC cells assessed as cell death at 8.0 mg/kg, iv daily 4 times for 3 days; type: functional
L1210 [44] = assay: Cell cycle arrest in mouse L1210 cells by accumulation at G2/M phase at 1 ug/ml after 12 hrs by flow cytometry; type: functional, cell-based
SK-OV-3 [45] = assay: Anticancer activity in CD1 mouse xenografted with human SKOV3 cells assessed as weight change at 25 mg/kg, ip; type: functional; conditions: route intraperitoneal
SK-OV-3 [46] = assay: Anticancer activity in CD1 mouse xenografted with human SKOV3 cells assessed as tumor growth inhibition at 25 mg/kg, ip; type: functional; conditions: SK-OV-3, ip, route intraperitoneal, read-out: TGI
MC-38 [47] = assay: Antitumor activity in BDF1 mouse bearing colon 38 cells assessed as tumor growth inhibition at 100 mg/kg, iv daily 4 times for 3 days; type: functional; conditions: MC-38, 72 h, read-out: TGI
MC-38 [48] = assay: Antitumor activity in BDF1 mouse bearing colon 38 cells assessed as maximum weight loss at 100 mg/kg, iv daily 4 times for 3 days; type: functional
MC-38 [49] = assay: Antitumor activity in BDF1 mouse bearing colon 38 cells assessed as cell death at 100 mg/kg, iv daily 4 times for 3 days; type: functional

For `O=C(Nc1ccc2[nH]c(C(=O)N3C[C@@H](CCl)c4c3cc(O)c3ccccc43)cc2c1)c1cc2cc(F)ccc2[nH]1`, the Activity (L1210 [1]) was “Active”, the Activity (L1210 [2]) was “Active” and the Activity (L1210 [3]) was “Active”. For the same compound, the inhibition in vivo at 0.05 mg/kg (MC-38 [4]) was 76%, the Activity (L1210 [5]) was “Active” and the Activity (MC-38 [6]) was -7%. The Activity (L1210 [7]) was “Active”, the Activity (L1210 [8]) was “Active” and the IC50 (L1210 [9]) was 0.17 nM. For the same compound, the LCK (MC-38 [10]) was 0.68, the IC50 (SK-OV-3 [11]) was 14 nM and the IC50 (L1210 [12]) was 0.29 nM. For the same compound, the Activity (L1210 [13]) was “Active”.
With `O=C(CCCCCN1C(=O)C=CC1=O)Oc1cc2c(c3ccccc13)[C@H](CCl)CN2C(=O)c1cc2cc(NC(=O)c3cc4cc(F)ccc4[nH]3)ccc2[nH]1` the Activity (L1210 [14]) was 133%, the LCK (MC-38 [15]) was 2.3 and the Activity (L1210 [1]) was “Active”. The Activity (L1210 [2]) was “Active”, the Activity (L1210 [3]) was “Active” and the LCK [16] was 1.9. For the same compound, the LCK [17] was 1.5, the Activity (MC-38 [18]) was -25% and the inhibition in vivo at 0.3 mg/kg (MC-38 [19]) was 99%. For the same compound, the inhibition in vivo at 0.25 mg/kg [20] was 98%, the Activity (L1210 [5]) was “Active” and the Activity (L1210 [7]) was “Active”. The Activity (L1210 [8]) was “Active”, the Activity (L1210 [21]) was 40% and the LCK [22] was 2. For the same compound, the Activity (MC-38 [23]) was -10%, the IC50 (L1210 [9]) was 25 nM and the Activity [24] was -19%. For the same compound, the Activity [25] was -23%, the inhibition in vivo at 0.15 mg/kg (MC-38 [26]) was 99% and the Activity (L1210 [27]) was 107%. The inhibition in vivo at 0.13 mg/kg (SK-OV-3 [28]) was 52%, the inhibition in vivo at 0.16 mg/kg [29] was 93% and the IC50 (SK-OV-3 [11]) was 34 nM. The LCK (MC-38 [30]) was 2.6, the Activity (SK-OV-3 [31]) was -3% and the inhibition in vivo at 0.2 mg/kg [32] was 98%. For the same compound, the Activity (L1210 [33]) was 51%, the Activity (L1210 [13]) was “Active” and the Activity [34] was -21%.
In the case of `O=c1[nH]cc(F)c(=O)[nH]1` [FLUOROURACIL], the LCK (MC-38 [35]) is reported as 1.1, the inhibition in vivo at 70 mg/kg (MC-38 [36]) is reported as 95% and the Activity (MC-38 [37]) is reported as -7%.
With `COc1cccc2c1C(=O)c1c(O)c3c(c(O)c1C2=O)C[C@@](O)(C(=O)CO)C[C@@H]3O[C@H]1C[C@H](N)[C@H](O)[C@H](C)O1` [DOXORUBICIN] the Activity (SK-OV-3 [38]) was -4%, the inhibition in vivo at 5 mg/kg (SK-OV-3 [39]) was 39% and the Activity (L1210 [40]) was 85%. The inhibition in vivo at 8 mg/kg [41] was 82%, the IC50 (L1210 [9]) was 182 nM and the Activity [42] was -25%. The LCK [43] was 0.78 and the Activity (L1210 [44]) was “Active”.
For `CCCCCC(=O)O` [HEXANOATE], the IC50 (L1210 [12]) was 4.6 nM.
Work on `CC(=O)O[C@H]1C(=O)[C@@]2(C)[C@H]([C@H](OC(=O)c3ccccc3)[C@]3(O)C[C@H](OC(=O)[C@H](O)[C@@H](NC(=O)c4ccccc4)c4ccccc4)C(C)=C1C3(C)C)[C@]1(OC(C)=O)CO[C@@H]1C[C@@H]2O` [PACLITAXEL] yielded an Activity (SK-OV-3 [45]) of -1% and an inhibition in vivo at 25 mg/kg (SK-OV-3 [46]) of 22%.
For `CC/C=C\C/C=C\C/C=C\C/C=C\C/C=C\C/C=C\CCC(=O)O` [DOCONEXENT], the IC50 (L1210 [12]) was 13 nM.
With `Cc1c[nH]c2c1[C@@]13C[C@@H]1CN(C(=O)c1cc4cc(NC(=O)c5cc6ccccc6o5)ccc4[nH]1)C3=CC2=O` the Activity (L1210 [1]) was “Active” and the Activity (L1210 [5]) was “Active”.
For `CCc1c2c(nc3ccc(OC(=O)N4CCC(N5CCCCC5)CC4)cc13)C1CC3=C(COC(=O)[C@]3(O)CC)C(=O)N1C2` (stereo partly drawn), the inhibition in vivo at 100 mg/kg (MC-38 [47]) was 96%, the Activity (MC-38 [48]) was -7% and the LCK (MC-38 [49]) was 1.7.

Source: ChEMBL document CHEMBL1157418, “Synthesis and antitumor activity evaluations of albumin-binding prodrugs of CC-1065 analog” (Bioorg Med Chem, 2008)
